Measured values as given in publication PMC6151383 (Molecules : A Journal of Synthetic Chemistry and Natural …, 2017).
Converted amounts (≈) assume the structure as drawn. Read-outs that look alike come from different tables or passages of the source.

Legend:
[1] = test system: Klebsiella pneumoniae D 11750/08; assay: Antibacterial microdilution broth MIC, K. pneumoniae; settings: 48 h incubation
[2] = test system: Staphylococcus aureus CCM 4516/08; assay: Antibacterial microdilution broth MIC, S. aureus; format: cell-based; settings: Staphylococcus aureus
[3] = test system: Mycobacterium tuberculosis 331/88 (H37Rv); assay: In vitro antimycobacterial MIC, M. tuberculosis; format: cell-based
[4] = test system: Mycobacterium kansasii 235/80; assay: In vitro antimycobacterial MIC, M. kansasii 235/80; format: cell-based
[5] = test system: Aspergillus fumigatus 231; assay: Antifungal microdilution broth MIC, A. fumigatus; format: cell-based
[6] = test system: Pseudomonas aeruginosa CCM 1961; assay: Antibacterial microdilution broth MIC, P. aeruginosa; format: cell-based; settings: Pseudomonas aeruginosa
[7] = test system: Escherichia coli CCM 4517; assay: Antibacterial microdilution broth MIC, E. coli; format: cell-based; settings: Escherichia coli
Candida tropicalis 156 = assay: Antifungal microdilution broth MIC, C. tropicalis; format: cell-based
[8] = test system: Staphylococcus epidermidis H 6966/08; assay: Antibacterial microdilution broth MIC, S. epidermidis; format: cell-based; settings: Staphylococcus epidermidis
[9] = test system: Enterococcus faecalis J 14365/08; assay: Antibacterial microdilution broth MIC, E. faecalis; format: cell-based; settings: Enterococcus faecalis
Trichosporon asahii 1188 = assay: Antifungal microdilution broth MIC, T. asahii; format: cell-based
[10] = test system: ESBL-positive Klebsiella pneumoniae J 14368/08
[11] = test system: Trichophyton interdigitale 445; assay: Antifungal microdilution broth MIC, T. interdigitale; format: cell-based
Candida glabrata 20/I = assay: Antifungal microdilution broth MIC, C. glabrata; format: cell-based; settings: Nakaseomyces glabratus
[12] = test system: Mycobacterium avium 330/88; assay: In vitro antimycobacterial MIC, M. avium; format: cell-based
Candida sp. = assay: Selectivity index for Candida sp. (IC50 HepG2/MIC); format: cell-based; settings: all Candida species
[13] = test system: Lichtheimia corymbifera 272; assay: Antifungal microdilution broth MIC, L. corymbifera; format: cell-based
[14] = test system: Candida albicans ATCC 44859; assay: Antifungal microdilution broth MIC, C. albicans; format: cell-based
Candida krusei E28 = assay: Antifungal microdilution broth MIC, C. krusei; format: cell-based; settings: Pichia kudriavzevii
M. kansasii 6509/96 = assay: In vitro antimycobacterial MIC, M. kansasii clinical isolate; format: cell-based; settings: Mycobacterium kansasii
[15] = test system: Klebsiella pneumoniae D 11750/08
M. tuberculosis and NTM = assay: Antimycobacterial activity, panel; format: cell-based; settings: Mycobacterium tuberculosis
[16] = test system: Gram-positive and Gram-negative bacteria; settings: both Gram-positive and Gram-negative bacteria; cited from earlier work
[17] = 336 h, 14 d incubation, read-out: MIC Mtb. 331/88 14 d
[18] = 504 h, 21 d incubation, read-out: MIC Mtb. 331/88 21 d
[19] = 235/80, 168 h, 7 d incubation, read-out: MIC M. kansasii 235/80 7 d
[20] = 235/80, 336 h, 14 d incubation, read-out: MIC M. kansasii 235/80 14 d
[21] = 235/80, 504 h, 21 d incubation, read-out: MIC M. kansasii 235/80 21 d
[22] = Trichophyton interdigitale, 445, 72 h, read-out: MIC TI 72 h
[23] = Trichophyton interdigitale, 445, 120 h, read-out: MIC TI 120 h
[24] = Trichophyton interdigitale, 445, read-out: MIC for T. interdigitale
[25] = 330/88, 336 h, 14 d incubation, read-out: MIC M. avium 330/88 14 d
[26] = 330/88, 504 h, 21 d incubation, read-out: MIC M. avium 330/88 21 d
[27] = 6509/96, 168 h, 7 d incubation, read-out: MIC M. kansasii 6509/96 7 d
[28] = 6509/96, 336 h, 14 d incubation, read-out: MIC M. kansasii 6509/96 14 d
[29] = 6509/96, 504 h, 21 d incubation, read-out: MIC M. kansasii 6509/96 21 d

## CC(C)(C)c1ccc(O)c(C=Nc2ccc(S(=O)(=O)Nc3ncccn3)cc2)c1 [Compound 2j, 4-{[5-(Tert-butyl)-2-hydroxybenzylidene]amino}-N-(pyrimidin-2-yl)benzenesulfonamide]
[1]
  MIC KP 48 h: >125 µM
[2]; CCM4516, 24 h, read-out: MIC SA 24 h
  MIC: > 125 µM
[2]; CCM4516, 48 h, read-out: MIC SA 48 h
  MIC: > 125 µM
[3]; [17]
  MIC: 32 µM (≈ 13.1 µg/mL)
[3]; [18]
  MIC: 62.5 µM (≈ 25.7 µg/mL)
[4]; [19]
  MIC: 16 µM (≈ 6.57 µg/mL)
[4]; [20]
  MIC: 32 µM (≈ 13.1 µg/mL)
[4]; [21]
  MIC: 62.5 µM (≈ 25.7 µg/mL)
[5]; Aspergillus fumigatus, 231, 24 h, read-out: MIC AF 24 h
  MIC: > 125 µM
[5]; Aspergillus fumigatus, 231, 48 h, read-out: MIC AF 48 h
  MIC: > 125 µM
[6]; CCM1961, 24 h, read-out: MIC PA 24 h
  MIC: > 125 µM
[6]; CCM1961, 48 h, read-out: MIC PA 48 h
  MIC: > 125 µM
[7]; CCM4517, 24 h, read-out: MIC EC 24 h
  MIC: > 125 µM
[7]; CCM4517, 48 h, read-out: MIC EC 48 h
  MIC: > 125 µM
Candida tropicalis 156; Candida tropicalis, 156, 24 h, read-out: MIC CT 24 h
  MIC: > 125 µM
Candida tropicalis 156; Candida tropicalis, 156, 48 h, read-out: MIC CT 48 h
  MIC: > 125 µM
[8]; H6966/08, 24 h, read-out: MIC SE 24 h
  MIC: > 125 µM
[8]; H6966/08, 48 h, read-out: MIC SE 48 h
  MIC: > 125 µM
[9]; J14365/08, 24 h, read-out: MIC EF 24 h
  MIC: > 125 µM
[9]; J14365/08, 48 h, read-out: MIC EF 48 h
  MIC: > 125 µM
Trichosporon asahii 1188; Trichosporon asahii, 1188, 24 h, read-out: MIC TA 24 h
  MIC: > 125 µM
Trichosporon asahii 1188; Trichosporon asahii, 1188, 48 h, read-out: MIC TA 48 h
  MIC: > 125 µM
[10]; 48 h incubation
  MIC KP-E 48 h: >125 µM
[11]; [22]
  MIC: 62.5 µM (≈ 25.7 µg/mL)
[11]; [23]
  MIC: 62.5 µM (≈ 25.7 µg/mL)
[11]; [24]
  MIC: 62.5 µM (≈ 25.7 µg/mL)
Candida glabrata 20/I; 24 h, read-out: MIC CG 24 h
  MIC: > 125 µM
Candida glabrata 20/I; 48 h, read-out: MIC CG 48 h
  MIC: > 125 µM
[12]; [25]
  MIC: 125 µM (≈ 51.3 µg/mL)
[12]; [26]
  MIC: 125 µM (≈ 51.3 µg/mL)
Candida sp.
  SI for Candida sp.: inactive
[13]; Lichtheimia corymbifera, 272, 24 h, read-out: MIC LC 24 h
  MIC: > 125 µM
[13]; Lichtheimia corymbifera, 272, 48 h, read-out: MIC LC 48 h
  MIC: > 125 µM
[14]; ATCC44859, 24 h, read-out: MIC CA 24 h
  MIC: > 125 µM
[14]; ATCC44859, 48 h, read-out: MIC CA 48 h
  MIC: > 125 µM
Candida krusei E28; E28, 24 h, read-out: MIC CK 24 h
  MIC: > 125 µM
Candida krusei E28; E28, 48 h, read-out: MIC CK 48 h
  MIC: > 125 µM
M. kansasii 6509/96; [27]
  MIC: 16 µM (≈ 6.57 µg/mL)
M. kansasii 6509/96; [28]
  MIC: 16 µM (≈ 6.57 µg/mL)
M. kansasii 6509/96; [29]
  MIC: 32 µM (≈ 13.1 µg/mL)

## O=S(=O)(Nc1ncccn1)c1ccc(N=Cc2ccccc2O)cc1 [Compound 2a, 4-[(2-Hydroxybenzylidene)amino]-N-(pyrimidin-2-yl)benzenesulfonamide]
[2]; CCM4516, 48 h incubation, read-out: MIC SA 48 h
  MIC: 500 µM (≈ 177 µg/mL)
[3]; [17]
  MIC: 16 µM (≈ 5.67 µg/mL)
[3]; [18]
  MIC: 32 µM (≈ 11.3 µg/mL)
[4]; [19]
  MIC: 8 µM (≈ 2.84 µg/mL)
[4]; [20]
  MIC: 16 µM (≈ 5.67 µg/mL)
[4]; [21]
  MIC: 32 µM (≈ 11.3 µg/mL)
[15]; 24 h
  MIC KP 24 h: >500 µM
[15]; 48 h
  MIC KP 48 h: >500 µM
[5]; Aspergillus fumigatus, 231, 48 h incubation, read-out: MIC AF 48 h
  MIC: > 500 µM
[6]; CCM1961, 48 h incubation, read-out: MIC PA 48 h
  MIC: 500 µM (≈ 177 µg/mL)
[7]; CCM4517, 48 h incubation, read-out: MIC EC 48 h
  MIC: > 500 µM
Candida tropicalis 156; Candida tropicalis, 156, 48 h incubation, read-out: MIC CT 48 h
  MIC: > 500 µM
[8]; H6966/08, 48 h incubation, read-out: MIC SE 48 h
  MIC: 62.5 µM (≈ 22.1 µg/mL)
[9]; J14365/08, 48 h incubation, read-out: MIC EF 48 h
  MIC: 62.5 µM (≈ 22.1 µg/mL)
Trichosporon asahii 1188; Trichosporon asahii, 1188, 48 h incubation, read-out: MIC TA 48 h
  MIC: > 500 µM
[10]; 24 h
  MIC KP-E 24 h: >500 µM
[10]; 48 h
  MIC KP-E 48 h: >500 µM
[11]; [22]
  MIC: 125 µM (≈ 44.3 µg/mL)
[11]; [23]
  MIC: 125 µM (≈ 44.3 µg/mL)
[11]; [24]
  MIC: 125 µM (≈ 44.3 µg/mL)
Candida glabrata 20/I; 48 h incubation, read-out: MIC CG 48 h
  MIC: > 500 µM
[12]; [25]
  MIC: 125 µM (≈ 44.3 µg/mL)
[12]; [26]
  MIC: 250 µM (≈ 88.6 µg/mL)
Candida sp.
  SI for Candida sp.: inactive
M. tuberculosis and NTM; M. tuberculosis and both M. kansasii strains only, read-out: MIC, M. tuberculosis and both M. kansasii strains
  MIC: ≤ 32 µM
M. tuberculosis and NTM; range over all four mycobacterial strains and incubation times, read-out: MIC, M. tuberculosis and NTM
  MIC: 8 to 250 µM (≈ 2.84 to 88.6 µg/mL)
[13]; Lichtheimia corymbifera, 272, 48 h incubation, read-out: MIC LC 48 h
  MIC: > 500 µM
[16]
  minimum inhibitory concentrations (MICs): 100 to 250 µg/mL
[14]; ATCC44859, 48 h incubation, read-out: MIC CA 48 h
  MIC: > 500 µM
Candida krusei E28; E28, 48 h incubation, read-out: MIC CK 48 h
  MIC: > 500 µM
M. kansasii 6509/96; [27]
  MIC: 8 µM (≈ 2.84 µg/mL)
M. kansasii 6509/96; [28]
  MIC: 16 µM (≈ 5.67 µg/mL)
M. kansasii 6509/96; [29]
  MIC: 32 µM (≈ 11.3 µg/mL)
